Oligonucleotides are written 5' to 3', each unit as a sugar letter and its base; * is a phosphorothioate linkage, no mark a phosphodiester; rarer units and linkages stand in square brackets, end groups in braces. Plain capitals give the bases only. d = 2'-deoxy (DNA); r = 2'-OH (RNA)
Each substance was assayed against MRFAP1 (assay: reporter assay of Huesken 2005). Settings: siRNA.
“sense rCrGrGrArCrGrCrGrCrGrCrCrCrGrUrGrCrGrCdTdT / antisense rGrCrGrCrArCrGrGrGrCrGrCrGrCrGrUrCrCrGdCdG” showed a normalised inhibition (eCFP-eYFP dual reporter) of 19.7%.
With “sense rCrUrArUrCrUrArUrUrArUrArArCrCrUrGrCrCdTdT / antisense rGrGrCrArGrGrUrUrArUrArArUrArGrArUrArGdTdG” the normalised inhibition (eCFP-eYFP dual reporter) was 90.4%.
“sense rUrUrGrArUrUrUrGrGrArArArArUrGrCrGrCrUdTdT / antisense rArGrCrGrCrArUrUrUrUrCrCrArArArUrCrArAdAdG” showed a normalised inhibition (eCFP-eYFP dual reporter) of 68.1%.
With “sense rArArArArUrCrUrUrArCrArUrGrUrUrArArUrAdTdT / antisense rUrArUrUrArArCrArUrGrUrArArGrArUrUrUrUdGdT” the normalised inhibition (eCFP-eYFP dual reporter) was 76.5%.
“sense rGrUrCrCrCrUrGrUrGrArCrArCrUrGrArGrArCdTdT / antisense rGrUrCrUrCrArGrUrGrUrCrArCrArGrGrGrArCdCdC” showed a normalised inhibition (eCFP-eYFP dual reporter) of 43%.
“sense rGrGrArCrArGrCrCrUrArArCrUrCrArUrUrUrUdTdT / antisense rArArArArUrGrArGrUrUrArGrGrCrUrGrUrCrCdCdA” was tested, and the normalised inhibition (eCFP-eYFP dual reporter) was 62.8%.
“sense rUrCrGrCrUrGrArCrGrCrGrCrGrArGrCrGrCrGdTdT / antisense rCrGrCrGrCrUrCrGrCrGrCrGrUrCrArGrCrGrAdCdG” gave a normalised inhibition (eCFP-eYFP dual reporter) of 14%.
Work on “sense rCrGrGrUrArUrGrGrGrArGrArUrGrArGrGrUrCdTdT / antisense rGrArCrCrUrCrArUrCrUrCrCrCrArUrArCrCrGdGdG” yielded a normalised inhibition (eCFP-eYFP dual reporter) of 84.8%.
In the case of “sense rGrArGrGrArCrArUrCrGrCrGrUrCrGrCrUrGrAdTdT / antisense rUrCrArGrCrGrArCrGrCrGrArUrGrUrCrCrUrCdGdC”, the normalised inhibition (eCFP-eYFP dual reporter) is reported as 77.9%.
Work on “sense rGrGrArGrGrArUrUrGrUrArUrUrGrUrUrUrCrUdTdT / antisense rArGrArArArCrArArUrArCrArArUrCrCrUrCrCdGdA” yielded a normalised inhibition (eCFP-eYFP dual reporter) of 105%.
Work on “sense rArCrUrGrArGrArCrUrUrGrGrArGrUrUrGrGrAdTdT / antisense rUrCrCrArArCrUrCrCrArArGrUrCrUrCrArGrUdGdT” yielded a normalised inhibition (eCFP-eYFP dual reporter) of 88.7%.
“sense rUrUrCrUrCrArCrUrGrArCrArCrUrArCrGrUrUdTdT / antisense rArArCrGrUrArGrUrGrUrCrArGrUrGrArGrArAdCdA” gave a normalised inhibition (eCFP-eYFP dual reporter) of 72.2%.
Work on “sense rUrUrUrGrGrGrUrCrCrCrUrGrUrGrArCrArCrUdTdT / antisense rArGrUrGrUrCrArCrArGrGrGrArCrCrCrArArAdGdT” yielded a normalised inhibition (eCFP-eYFP dual reporter) of 50.8%.
In the case of “sense rGrArGrCrCrGrUrCrCrGrCrGrGrUrUrUrCrCrAdTdT / antisense rUrGrGrArArArCrCrGrCrGrGrArCrGrGrCrUrCdAdC”, the normalised inhibition (eCFP-eYFP dual reporter) is reported as 70.1%.
For “sense rUrGrCrArGrCrArArUrGrGrCrArGrArArGrArAdTdT / antisense rUrUrCrUrUrCrUrGrCrCrArUrUrGrCrUrGrCrAdTdG”, the normalised inhibition (eCFP-eYFP dual reporter) was 72.9%.
“sense rUrCrUrGrCrUrGrCrCrCrGrUrCrArUrCrCrArCdTdT / antisense rGrUrGrGrArUrGrArCrGrGrGrCrArGrCrArGrAdAdA” showed a normalised inhibition (eCFP-eYFP dual reporter) of 35.3%.
“sense rUrCrArUrUrCrCrUrGrGrCrUrUrUrGrGrUrGrUdTdT / antisense rArCrArCrCrArArArGrCrCrArGrGrArArUrGrAdAdC” was tested, and the normalised inhibition (eCFP-eYFP dual reporter) was 52.6%.
Work on “sense rGrGrCrArArGrCrUrGrUrGrGrGrArGrArUrGrGdTdT / antisense rCrCrArUrCrUrCrCrCrArCrArGrCrUrUrGrCrCdCdC” yielded a normalised inhibition (eCFP-eYFP dual reporter) of 81%.
With “sense rGrArGrArGrCrCrUrUrUrGrUrUrUrUrCrCrUrUdTdT / antisense rArArGrGrArArArArCrArArArGrGrCrUrCrUrCdTdG” the normalised inhibition (eCFP-eYFP dual reporter) was 106%.
“sense rCrArArGrUrUrGrGrUrArUrCrCrCrCrArUrArUdTdT / antisense rArUrArUrGrGrGrGrArUrArCrCrArArCrUrUrGdTdA” gave a normalised inhibition (eCFP-eYFP dual reporter) of 62.5%.
Work on “sense rCrArUrArUrGrUrArGrUrCrArArGrCrUrArUrAdTdT / antisense rUrArUrArGrCrUrUrGrArCrUrArCrArUrArUrGdAdA” yielded a normalised inhibition (eCFP-eYFP dual reporter) of 101%.
Substance “sense rCrUrArUrUrArUrArArCrCrUrGrCrCrUrGrArUdTdT / antisense rArUrCrArGrGrCrArGrGrUrUrArUrArArUrArGdAdT” has a normalised inhibition (eCFP-eYFP dual reporter) of 88%.
“sense rCrUrGrCrCrCrGrUrCrArUrCrCrArCrGrArGrAdTdT / antisense rUrCrUrCrGrUrGrGrArUrGrArCrGrGrGrCrArGdCdA” was tested, and the normalised inhibition (eCFP-eYFP dual reporter) was 70.8%.
Work on “sense rArCrUrCrGrGrCrCrCrGrArGrCrUrCrGrGrUrCdTdT / antisense rGrArCrCrGrArGrCrUrCrGrGrGrCrCrGrArGrUdCdT” yielded a normalised inhibition (eCFP-eYFP dual reporter) of 61.5%.
With “sense rArGrGrUrCrArArArArCrCrCrUrUrArCrCrArUdTdT / antisense rArUrGrGrUrArArGrGrGrUrUrUrUrGrArCrCrUdCdA” the normalised inhibition (eCFP-eYFP dual reporter) was 85.7%.
Substance “sense rCrCrGrArGrGrArGrGrUrGrGrArGrGrUrGrCrUdTdT / antisense rArGrCrArCrCrUrCrCrArCrCrUrCrCrUrCrGrGdGdC” has a normalised inhibition (eCFP-eYFP dual reporter) of 58.9%.
“sense rCrCrGrGrGrGrCrArArGrCrUrGrUrGrGrGrArGdTdT / antisense rCrUrCrCrCrArCrArGrCrUrUrGrCrCrCrCrGrGdTdT” was tested, and the normalised inhibition (eCFP-eYFP dual reporter) was 44.9%.
“sense rUrCrUrUrCrGrUrGrArGrCrCrGrUrCrCrGrCrGdTdT / antisense rCrGrCrGrGrArCrGrGrCrUrCrArCrGrArArGrAdCdT” was tested, and the normalised inhibition (eCFP-eYFP dual reporter) was 35.4%.
“sense rArArCrCrUrGrCrCrUrGrArUrGrArGrUrUrUrGdTdT / antisense rCrArArArCrUrCrArUrCrArGrGrCrArGrGrUrUdAdT” showed a normalised inhibition (eCFP-eYFP dual reporter) of 52%.
Substance “sense rArArArGrCrArGrCrGrGrArGrArUrGrCrGrGrCdTdT / antisense rGrCrCrGrCrArUrCrUrCrCrGrCrUrGrCrUrUrUdGdC” has a normalised inhibition (eCFP-eYFP dual reporter) of 35.6%.
“sense rArGrUrUrUrCrUrGrCrUrGrCrCrCrGrUrCrArUdTdT / antisense rArUrGrArCrGrGrGrCrArGrCrArGrArArArCrUdGdC” was tested, and the normalised inhibition (eCFP-eYFP dual reporter) was 66.2%.
Work on “sense rCrCrUrGrCrArGrGrGrCrGrCrGrGrGrCrGrGrCdTdT / antisense rGrCrCrGrCrCrCrGrCrGrCrCrCrUrGrCrArGrGdTdG” yielded a normalised inhibition (eCFP-eYFP dual reporter) of 60.9%.
In the case of “sense rUrGrCrArGrCrUrCrGrUrGrCrGrGrCrGrGrArUdTdT / antisense rArUrCrCrGrCrCrGrCrArCrGrArGrCrUrGrCrAdCdC”, the normalised inhibition (eCFP-eYFP dual reporter) is reported as 33.7%.
Substance “sense rGrCrGrCrCrCrGrUrGrCrGrCrArArCrCrGrGrGdTdT / antisense rCrCrCrGrGrUrUrGrCrGrCrArCrGrGrGrCrGrCdGdC” has a normalised inhibition (eCFP-eYFP dual reporter) of 55.3%.
“sense rGrArCrGrCrArGrUrGrGrArGrCrUrGrGrCrGrGdTdT / antisense rCrCrGrCrCrArGrCrUrCrCrArCrUrGrCrGrUrCdCdA” gave a normalised inhibition (eCFP-eYFP dual reporter) of 65.5%.
Substance “sense rGrArArArCrCrArGrArGrArGrCrCrUrUrUrGrUdTdT / antisense rArCrArArArGrGrCrUrCrUrCrUrGrGrUrUrUrCdAdG” has a normalised inhibition (eCFP-eYFP dual reporter) of 86%.
“sense rArArGrArUrGrGrCrCrGrArGrArUrGrCrUrGrGdTdT / antisense rCrCrArGrCrArUrCrUrCrGrGrCrCrArUrCrUrUdCdG” showed a normalised inhibition (eCFP-eYFP dual reporter) of 33.1%.
Work on “sense rArArGrGrCrCrGrArCrGrArGrArArGrGrCrGrCdTdT / antisense rGrCrGrCrCrUrUrCrUrCrGrUrCrGrGrCrCrUrUdCdT” yielded a normalised inhibition (eCFP-eYFP dual reporter) of 63.1%.
For “sense rCrArCrUrGrArGrArCrUrUrGrGrArGrUrUrGrGdTdT / antisense rCrCrArArCrUrCrCrArArGrUrCrUrCrArGrUrGdTdC”, the normalised inhibition (eCFP-eYFP dual reporter) was 77.6%.
For “sense rArCrArArGrCrArArArGrCrArGrCrGrGrArGrAdTdT / antisense rUrCrUrCrCrGrCrUrGrCrUrUrUrGrCrUrUrGrUdCdT”, the normalised inhibition (eCFP-eYFP dual reporter) was 62.6%.
“sense rCrGrGrCrGrGrArArGrUrUrUrUrGrArArGrArCdTdT / antisense rGrUrCrUrUrCrArArArArCrUrUrCrCrGrCrCrGdCdT” showed a normalised inhibition (eCFP-eYFP dual reporter) of 94.8%.
“sense rArArGrCrArGrCrGrGrArGrArUrGrCrGrGrCrCdTdT / antisense rGrGrCrCrGrCrArUrCrUrCrCrGrCrUrGrCrUrUdTdG” was tested, and the normalised inhibition (eCFP-eYFP dual reporter) was 42.8%.
With “sense rArCrUrUrCrGrArGrCrArGrUrUrUrCrUrGrCrUdTdT / antisense rArGrCrArGrArArArCrUrGrCrUrCrGrArArGrUdCdC” the normalised inhibition (eCFP-eYFP dual reporter) was 51.4%.
“sense rCrGrGrArArCrCrCrGrGrUrArUrGrGrGrArGrAdTdT / antisense rUrCrUrCrCrCrArUrArCrCrGrGrGrUrUrCrCrGdTdT” gave a normalised inhibition (eCFP-eYFP dual reporter) of 49.8%.
In the case of “sense rGrArGrUrGrUrCrGrUrGrCrArGrArCrArArGrCdTdT / antisense rGrCrUrUrGrUrCrUrGrCrArCrGrArCrArCrUrCdAdG”, the normalised inhibition (eCFP-eYFP dual reporter) is reported as 64.8%.
Substance “sense rUrArCrArCrGrGrCrUrArGrGrArCrUrGrArUrGdTdT / antisense rCrArUrCrArGrUrCrCrUrArGrCrCrGrUrGrUrAdAdG” has a normalised inhibition (eCFP-eYFP dual reporter) of 61.8%.
Substance “sense rGrArGrGrUrCrUrUrGrUrUrCrGrUrCrUrGrUrAdTdT / antisense rUrArCrArGrArCrGrArArCrArArGrArCrCrUrCdAdT” has a normalised inhibition (eCFP-eYFP dual reporter) of 72.7%.
“sense rGrArUrCrArArGrArCrGrCrArGrGrUrArGrArGdTdT / antisense rCrUrCrUrArCrCrUrGrCrGrUrCrUrUrGrArUrCdTdG” was tested, and the normalised inhibition (eCFP-eYFP dual reporter) was 72%.
With “sense rCrCrUrGrCrArArUrGrGrArCrCrCrArArArArCdTdT / antisense rGrUrUrUrUrGrGrGrUrCrCrArUrUrGrCrArGrGdTdT” the normalised inhibition (eCFP-eYFP dual reporter) was 86.2%.
For “sense rUrGrUrUrCrGrUrCrUrGrUrArCrArArGrUrUrGdTdT / antisense rCrArArCrUrUrGrUrArCrArGrArCrGrArArCrAdAdG”, the normalised inhibition (eCFP-eYFP dual reporter) was 84.8%.
In the case of “sense rGrArGrGrArCrUrCrCrArUrGrCrArGrCrArArUdTdT / antisense rArUrUrGrCrUrGrCrArUrGrGrArGrUrCrCrUrCdTdT”, the normalised inhibition (eCFP-eYFP dual reporter) is reported as 44.8%.
Substance “sense rUrGrUrUrCrUrCrArCrUrGrArCrArCrUrArCrGdTdT / antisense rCrGrUrArGrUrGrUrCrArGrUrGrArGrArArCrAdGdA” has a normalised inhibition (eCFP-eYFP dual reporter) of 68.9%.

— the OligoGym collection
Further: test concentration or dose not given here.
